How the values were obtained:
[1] = Solid stability test for Crystal Form A (high temperature, high humidity, strong light, accelerated conditions); assay type: physicochemical
Excerpt: See Table 3 below for chromatographic conditions for the HPLC method of solid stability testing:
According to the Guideline for Stability Testing of APIs and Formulations (Chinese Pharmacopoeia 2015 Edition, Volume IV, General Principles 9001).
After being placed under high temperature and high humidity conditions, samples were placed in a desiccator for examination. On the 5th, 10th and 30th days, samples were taken for testing, and the results were compared with the initial test results on day 0. Samples placed under strong light condition were covered with a transparent lid and sealed with a sealing film and samples were taken on the 5th and 10th for testing and the results were compared to the initial test results on day 0. […] Each aliquot was placed in a double-layer LDPE bag. Each layer of LDPE bag was sealed by tying, respectively. Then the LDPE bag was placed in an aluminum foil bag and heat sealed and placed at 25° C./60% relative humidity. Samples were taken at the 3th month, 6th month, 9th month and 12th month, and placed under 40° C./75% relative humidity. Samples were taken at the 1st month, 2^ed month, 3th month and 6th month, respectively. The test results were compared with the initial test results on day 0.

[2] = Pharmacokinetic evaluation in rats; assay type: in vivo, SD rats
Method: The animals used in this study were SD male rats. The LC/MS/MS method was applied to quantify the plasma drug concentrations in rats at different time points after administration of the test compound intravenously or orally by gavage in order to evaluate the pharmacokinetic characteristics of the test compound in rats.
Sprague Dawley (SD) rats (male, 200-300 g, 7-10 weeks old, Beijing Vital River or Shanghai SLAC).
A clear solution of the test compound was administered to SD rats by tail vein injection (overnight fasting) or oral gavage (overnight fasting). At 0 hour (before administration through tail vein injection) and 0.0833, 0.25, 0.5, 1, 2, 4, 6, 8 and 24 hours after administration through tail vein injection, 200 μL of blood was collected by jugular venipuncture into anticoagulation tubes supplemented with EDTA-K2 (Jiangsu Kangjian Medical Supplies Co., Ltd.). The mixture in the anticoagulation tube was vortexed thoroughly at 4° C. and then centrifuged at 13,000 rpm for 10 minutes to obtain the plasma. At 0 hours (before administration by oral gavage) and 0.5, 1, 2, 4, 6, 8 and 24 hours after administration by oral gavage, 200 μL of blood was collected by jugular venipuncture into anticoagulation tubes supplemented with EDTA-K2 (Jiangsu Kangjian Medical Supplies Co., Ltd.). The mixture in the anticoagulation tube was vortexed thoroughly and the plasma was then centrifuged at 13,000 rpm for 10 minutes to obtain the plasma. Blood concentrations were determined by LC/MS/MS and the relevant pharmacokinetic parameters were calculated using WinNonlin™ Version 6.3 (Pharsight, Mountain View, CA) pharmacokinetics software with a non-compartmental model linear-log trapezoidal method.

[3] = 25° C./60% relative humidity, sealed, 3 months
[4] = 25° C./60% relative humidity, sealed, 6 months
[5] = 25° C./60% relative humidity, sealed, 9 months
[6] = 25° C./60% relative humidity, sealed, 12 months
[7] = 40° C., 75% relative humidity, sealed, 1 month
[8] = 40° C., 75% relative humidity, sealed, 2 months
[9] = 40° C., 75% relative humidity, sealed, 3 months
[10] = 40° C., 75% relative humidity, sealed, 6 months
[11] = High humidity (room temperature/92.5% relative humidity, open), 5 days
[12] = High humidity (room temperature/92.5% relative humidity, open), 10 days
[13] = High humidity (room temperature/92.5% relative humidity, open), 30 days
[14] = High temperature (60° C., open), 5 days
[15] = High temperature (60° C., open), 10 days
[16] = High temperature (60° C., open), 30 days
[17] = Strong light (4500 ± 500 lux-hr, 90 μw-hr/cm^2, sealed), 5 days
[18] = Strong light (4500 ± 500 lux-hr, 90 μw-hr/cm^2, sealed), 10 days

COCCNS(=O)(=O)Nc1ncnc(OCCOc2ncc(Br)cn2)c1-c1ccc2c(c1)OCO2
Appearance ([1]; 0 day (initial)): White powder
Crystal Form ([1]; 0 day (initial)): Crystal Form A
Crystal Form A of the compound of formula (I) (%) ([1]; 0 day (initial)): 99.2%
Total impurities (%) ([1]; 0 day (initial)): 0.26%
Appearance [1, 3]: White powder
Crystal Form [1, 3]: Crystal Form A
Crystal Form A of the compound of formula (I) (%) [1, 3]: 100.2%
Total impurities (%) [1, 3]: 0.13%
Appearance [1, 4]: White powder
Crystal Form [1, 4]: Crystal Form A
Crystal Form A of the compound of formula (I) (%) [1, 4]: 100.1%
Total impurities (%) [1, 4]: 0.20%
Appearance [1, 5]: White powder
Crystal Form A of the compound of formula (I) (%) [1, 5]: 100.0%
Total impurities (%) [1, 5]: 0.13%
Appearance [1, 6]: White powder
Crystal Form A of the compound of formula (I) (%) [1, 6]: 100.1%
Total impurities (%) [1, 6]: 0.16%
Appearance [1, 7]: White powder
Crystal Form A of the compound of formula (I) (%) [1, 7]: 99.2%
Total impurities (%) [1, 7]: 0.14%
Appearance [1, 8]: White powder
Crystal Form A of the compound of formula (I) (%) [1, 8]: 99.3%
Total impurities (%) [1, 8]: 0.14%
Appearance [1, 9]: White powder
Crystal Form [1, 9]: Crystal Form A
Crystal Form A of the compound of formula (I) (%) [1, 9]: 100.6%
Total impurities (%) [1, 9]: 0.13%
Appearance [1, 10]: White powder
Crystal Form [1, 10]: Crystal Form A
Crystal Form A of the compound of formula (I) (%) [1, 10]: 100.2%
Total impurities (%) [1, 10]: 0.20%
Appearance [1, 11]: White powder
Crystal Form A of the compound of formula (I) (%) [1, 11]: 99.7%
Total impurities (%) [1, 11]: 0.30%
Appearance [1, 12]: White powder
Crystal Form A of the compound of formula (I) (%) [1, 12]: 99.5%
Total impurities (%) [1, 12]: 0.31%
Appearance [1, 13]: White powder
Crystal Form A of the compound of formula (I) (%) [1, 13]: 99.5%
Total impurities (%) [1, 13]: 0.15%
Appearance [1, 14]: White powder
Crystal Form A of the compound of formula (I) (%) [1, 14]: 100.1%
Total impurities (%) [1, 14]: 0.30%
Appearance [1, 15]: White powder
Crystal Form A of the compound of formula (I) (%) [1, 15]: 100.0%
Total impurities (%) [1, 15]: 0.31%
Appearance [1, 16]: White powder
Crystal Form A of the compound of formula (I) (%) [1, 16]: 99.1%
Total impurities (%) [1, 16]: 0.14%
Appearance [1, 17]: White powder
Crystal Form A of the compound of formula (I) (%) [1, 17]: 99.7%
Total impurities (%) [1, 17]: 0.29%
Appearance [1, 18]: White powder
Crystal Form A of the compound of formula (I) (%) [1, 18]: 99.6%
Total impurities (%) [1, 18]: 0.30%
Solid stability (conclusion in words) ([1]; high temperature, high humidity or strong light condition): good stability

COCCNS(=O)(=O)Nc1ncnc(OCCOc2ncc(Br)cn2)c1-c1ccc2c(c1)OCO2 [Compound of formula (I)]
Area under the drug concentration-time curve ([2]; intravenous injection 2 mg/kg): 16.09 µM·h
Plasma clearance ([2]; intravenous injection 2 mg/kg, 2 mg/kg): 3.71 mL/min/kg
Area under the drug concentration-time curve ([2]; oral 10 mg/kg): 60.22 µM·h
Peak concentration ([2]; oral 10 mg/kg): 31.99 µM
Peak time ([2]; oral 10 mg/kg): 0.25 h
Bioavailability ([2]; oral 10 mg/kg, 10 mg/kg): 74.9%

— patent publication US12297192B2, “Crystal form of pyrimidine sulfonamide compound and preparation method therefor” (WUXI BIOCITY BIOPHARMACEUTICS CO., LTD., priority 2019, dated 2025)
